Reference: patent US8809618B2, “Transgenic mouse for screening and for studies of the pharmacodynamics and pharmacokinetics of ligands acting on the oestrogen receptor and its intracellular receptors, and method for the preparation thereof” (T.O.P. (Transgenic Operative Products) S.R.L., priority 2000, dated 2014)
Entries after “also recorded” stand apart in the source; their conditions may differ.

Assays:
[1] = tested on: ER reporter in primary bone marrow cells; test: Luciferase expression in primary bone marrow cells from transgenic mice; assay type: cell-based, mouse; details: 16 hours; for luciferase accumulation in the presence of 1 nM E2: 100 nM ligand plus 1 nM E2; for luciferase accumulation, ligand alone: E2 0.01-10 nM, ICI and T 100 nM, Prog and Dex 10 nM
Description: Two millions of bone marrow cells were suspended in phenol red-free RPMI 1640 with 10% stripped serum. […] Bars represent the average.+−.s.e.m. of 5 individual experiments each done in triplicate. *(P<0.01 as compared to the control), **(P<0.005 as compared to the control), ° (P<0.05 as compared to the T-treated); P were calculated with ANOVA followed by Scheffe test. […] As a control, we also tested progesterone and dexamethasone (10 nM).

oestrogen receptors [2] = test: Agonistic/antagonistic action of ER ligands: luciferase activity in tissues of line 2 ERE-luciferase transgenic mice; assay type: in vivo, mouse; details: line 2 mice; for effect on E2-dependent activation of luciferase expression in vivo: 250 μg/kg one hour before 50 μg/kg E2
Description: To verify the expression of the transgene in the different tissues and its inducibility by oestrogens, 4 independent experiments were carried out on 8 female individuals of each line (4 heterozygotic and 4 homozygotic). For each experiment, two female individuals were ovariectomised. With the aim of reducing the oestrogens present in the bloodstream of the ovariectomised animals below the detection limit, there was a wait of two weeks before the induction experiment was carried out; the individuals were then subjected to subcutaneous (s.c.) injection of mineral oil with or without 50 μg/kg of dissolved 17-β oestradiol; 16 hours after the treatment, the individuals were sacrificed and the following tissues were dissected out of them: uterus, liver, spleen, lung, heart, kidney, hypothalamus and brain. The protein extracts were obtained by disintegration of the tissue with a homogenizer in the presence of a phosphate lysis buffer consisting of 0.1 M KH2PO4, 0.1 M K2HPO4, 1 mM DTT, 4 mM EGTA and 4 mM EDTA at pH 7.8. The suspension was frozen and thawed three times, and centrifuged for 30 minutes at 13,000 g; the supernatant was collected and equal quantities of protein, measured by the colorimetric method of Bradford, were subjected to enzymatic testing to reveal the activity of the enzyme luciferase. The method for detection of the activity of the reporter was carried out with a kit by the procedure recommended by the producer (Sigma), mixing ca. 20 μg of protein extract with the luciferin substrate in the presence of 0.5 mM ATP and 30 mM DTT and measuring the […] emitted using a luminometer (Lumat BL 9500, Berthold). With reference to FIGS. 5 to 7 of the attached drawings, individuals were subcutaneously injected (s.c.) with 50 μg/Kg 17β-estradiol (E2) or with vehicle (vegetable oil) and sacrificed at 24 hours. Luciferase enzymatic activity was evaluated and plotted in the graph. The arbitrary units are obtained considering the luciferase activity in the uterus of control individuals=100.
By subcutaneous injection of the substance in the presence or in the absence of 17-β oestradiol it is in fact possible to compare the distribution and the intensity of expression of the luciferase gene in the various tissues and to compare it with the control or with the injection of 17-β oestradiol alone. The effect of in vivo administration of two known ER antagonists was investigated in line 2 of transgenic mice. […] Luciferase is expressed as fold induction obtained as the ratio between luciferase activity in ligands treated/control mice.

oestrogen receptors [3] = test: Xenooestrogen activity: luciferase activity in liver and brain of transgenic mice injected s.c. with DDT; assay type: in vivo, mouse; details: s.c. 5000 μg/ml
Description: (§1) To verify the expression of the transgene in the different tissues and its inducibility by oestrogens, 4 independent experiments were carried out on 8 female individuals of each line (4 heterozygotic and 4 homozygotic). For each experiment, two female individuals were ovariectomised. […] The suspension was frozen and thawed three times, and centrifuged for 30 minutes at 13,000 g; the supernatant was collected and equal quantities of protein, measured by the colorimetric method of Bradford, were subjected to enzymatic testing to reveal the activity of the enzyme luciferase. The method for detection of the activity of the reporter was carried out with a kit by the procedure recommended by the producer (Sigma), mixing ca. 20 μg of protein extract with the luciferin substrate in the presence of 0.5 mM ATP and 30 mM DTT and measuring the […] emitted using a luminometer (Lumat BL 9500, Berthold). […] Luciferase enzymatic activity was evaluated and plotted in the graph. […]

oestrogen receptor = test: Time course of luciferase activity in bone and liver of transgenic mice after E2; assay type: in vivo, mouse; details: s.c. 50 μg/kg, sacrificed after 3, 6 or 16 hours
oestrogen receptors [4] = test: Tissue distribution of E2-dependent luciferase induction in ovariectomised female transgenic mice; assay type: in vivo, mouse; details: 26 tissues, ovariectomised 2-month old females, s.c., 16 hours
Description: as §1
The pharmacodynamics of any compound acting via intracellular receptors can also be correctly predicted by the transgenic model of the invention. As an illustrative example, […] luciferase activity was measured in 26 different tissues from 2-month old female mice which had been ovariectomised 2 weeks prior to the experiment. […]

Compound | luciferase accumulation in the presence of 1 nM E2 [1] | luciferase accumulation, ligand alone [1] | effect on E2-dependent activation of luciferase expression in vivo (oestrogen receptors [2]) | other results
4-hydroxytamoxifen | higher luciferase accumulation, yet the level reached was still lower than with E2 alone | significant increase in luciferase levels even though lower than E2 at the same concentration | blockade | agonist activity on luciferase expression in vivo (oestrogen receptors [2]; 250 μg/Kg alone, liver and brain): partial agonist activity; effect on E2-dependent activation of luciferase expression in vivo (oestrogen receptors [2]; listed as tamoxifen): inhibits the E2-dependent activation of luciferase expression
Clc1ccc(C(c2ccc(Cl)cc2)C(Cl)(Cl)Cl)cc1 [DDT] |  |  |  | persistence of luciferase induction (oestrogen receptors [3]): 72 h; time of maximal induction of luciferase activity (oestrogen receptors [3]; sacrificed at 3-72 hours, vs vehicle): 24 h
C[C@]12CC[C@@H]3c4ccc(O)cc4CC[C@H]3[C@@H]1CC[C@@H]2O [E2, 17β-estradiol] |  | dose-dependent increase |  | time of maximal luciferase accumulation (oestrogen receptor): 6 h; luciferase enzyme content in tissues compared to controls (oestrogen receptors [4]): induced an increase in the enzyme content compared to controls in oestrogen target organs
C[C@]12CC[C@@H]3c4ccc(O)cc4C[C@@H](CCCCCCCCC[S+]([O-])CCCC(F)(F)C(F)(F)F)[C@H]3[C@@H]1CC[C@@H]2O (some centres unmarked) [ICI 182,780] | blocked | did not sort [sic] any effect | blockade; also recorded: inhibits the E2-dependent activation of luciferase expression | 
CC(=O)[C@H]1CC[C@H]2[C@@H]3CCC4=CC(=O)CC[C@]4(C)[C@H]3CC[C@]12C [progesterone] |  | did not have any effect |  | 
